Columns and labels:
[1] = system: Human immunodeficiency virus 1; experiment: Stabilization of HIV-1 RT-RNase H assessed as change in melting temperature at 20 uM by sypro-orange dye-based differential scanning fluorimetric analysis
[2] = system: Human immunodeficiency virus 1; experiment: Antiviral activity against HIV1 RF infected in human CEM-SS cells assessed as protection against viral-induced cytopathic effect after 7 days by XTT assay; assay type: functional, cell-based; conditions: Human immunodeficiency virus 1, RF, 168 h
[3] = Cytotoxicity against human CEM-SS cells after 7 days by XTT assay; assay type: cell-based
[4] = Inhibition of HIV-1 RT-RNase H using 18-nucleotide 3'-fluorescein-labeled RNA annealed to a complementary 18-nucleotide 5'-dabsyl-labeled DNA as substrate measured after 10 mins by FRET assay; design: species or system Human immunodeficiency virus 1

Row | SMILES | ΔTm [1] | EC50 [2] | CC50 at 168 h [3] | IC50 [4]
1 | CC(C)c1ccc(O)c(=O)c(O)c1 | 2.3 °C | – | – | –
2 | COC(=O)c1c(C)cc(O)c(=O)c(O)c1Br | 2.48 °C | 2.2 µM | 7.6 µM | 0.13 µM
3 | CC(=O)c1cc(O)c(=O)c(O)cc1C | 2.9 °C | 6.9 µM | 20 µM | 0.29 µM
4 | COC(=O)c1cc(O)c(=O)c(O)cc1C | 2.7 °C | 7.5 µM | – | 0.16 µM
5 | CCOC(=O)c1cc(O)c(=O)c(O)cc1C | 2.4 °C | 5 µM | – | 0.25 µM

— ChEMBL document CHEMBL3992484, “Synthetic α-Hydroxytropolones as Inhibitors of HIV Reverse Transcriptase Ribonuclease H Activity” (Medchemcomm, 2016)
